In brackets after ≈: the same amount, converted by molar mass. Activity calls are given as the source filed them. The rule behind the calls is not given here.
Columns and labels:
Human alphaherpesvirus 2 = assay: Antiviral activity on the replication of HSV-2 at 400 ug/mL.; format: functional, organism-based
Human alphaherpesvirus 1 = assay: Antiviral activity on the replication of HSV-1 at 400 ug/mL.; format: functional, organism-based
L1210 [1] = assay: Cytotoxic activity against murine leukemia L1210 cells; format: functional; conditions: Mus musculus, read-out: ID50 (the source's name)
L1210 [2] = assay: Cytotoxic activity against murine leukemia L1210/deoxycytidine kinase deficient cell lines; format: functional; conditions: Mus musculus, read-out: ID50 (the source's name)
[3] = test system: Vesicular stomatitis virus; assay: Antiviral activity on the replication of vesicular stomatitis virus at 400 ug/mL.; format: functional, organism-based
Oryctolagus cuniculus = organism: Oryctolagus cuniculus; assay: Inhibition of rabbit skeletal muscle protein kinase I; format: functional
Vaccinia virus = assay: Antiviral activity on the replication of vaccinia virus at 400 ug/mL.; format: functional, organism-based; conditions: Orthopoxvirus vaccinia
L1210 [4] = assay: Inhibition of L1210/0 cell proliferation; format: functional; conditions: Mus musculus, read-out: ID50 (the source's name)
L1210/ara C [5] = assay: Inhibition of L1210/arac cell proliferation at 200 ug/mL; IA means Inactive; format: functional, cell-based; conditions: Mus musculus
L1210/ara C [6] = assay: Inhibition of L1210/ara C cell proliferation; format: functional; conditions: Mus musculus, read-out: ID50 (the source's name)

SMILES	Activity (Human alphaherpesvirus 2)	Activity (Human alphaherpesvirus 1)	IC50 (L1210 [1]) [µg/mL]	IC50 (L1210 [2]) [µg/mL]	Activity [3]	Ka (Oryctolagus cuniculus) [µM]	Activity (Vaccinia virus)	IC50 (L1210 [4]) [µg/mL]	Activity (L1210/ara C [5])	IC50 (L1210/ara C [6]) [µg/mL]
CCCCc1cn([C@@H]2O[C@@H]3COP(=O)(O)O[C@H]3[C@H]2O)c(=O)nc1N.N	inactive	inactive	> 200	> 200	inactive	0.8	inactive			
CCCCCc1cn(C2O[C@H](COP(=O)(O)O)[C@@H](O)[C@H]2O)c(=O)nc1N (stereo partly specified)	inactive	inactive			inactive		inactive			
CCCCCCc1cn(C2O[C@H](COP(=O)(O)O)[C@@H](O)[C@H]2O)c(=O)nc1N (stereo partly specified)	inactive	inactive			inactive		inactive			
Cc1cn([C@@H]2O[C@@H]3COP(=O)(O)O[C@H]3[C@H]2O)c(=O)nc1N.N	inactive	inactive	> 200	> 200	inactive		inactive			
CC(C)c1cn(C2O[C@H](COP(=O)(O)O)[C@@H](O)[C@H]2O)c(=O)nc1N (stereo partly specified)	inactive	inactive			inactive		inactive			
Nc1ccn([C@@H]2O[C@@H]3COP(=O)(O)O[C@H]3[C@H]2O)c(=O)n1						0.03		43 (≈ 141 µM)		
CCCCc1cn(C2O[C@H](COP(=O)(O)O)[C@@H](O)[C@H]2O)c(=O)nc1N (stereo partly specified)	inactive	inactive			inactive		inactive			
Cc1cn([C@@H]2O[C@H](CO)[C@@H](O)[C@H]2O)c(=O)nc1N								94 (≈ 365 µM)	inactive	
CCc1cn([C@@H]2O[C@@H]3COP(=O)(O)O[C@H]3[C@H]2O)c(=O)nc1N.N	inactive	inactive	> 200	> 200	inactive	0.8	inactive			
CCCCCCCCc1cnc(O)nc1N								190 (≈ 851 µM)	inactive	
CCCCCCCCc1cn([C@@H]2O[C@@H]3COP(=O)(O)O[C@H]3[C@H]2O)c(=O)nc1N.N	inactive	inactive	> 200	> 200	inactive	0.8	inactive			
Cc1cn([C@@H]2O[C@H](COP(=O)(O)O)[C@@H](O)[C@H]2O)c(=O)nc1N	inactive	inactive			inactive		inactive	162 (≈ 480 µM)	inactive	
CCCCCCCCc1cn(C2O[C@H](COP(=O)(O)O)[C@@H](O)[C@H]2O)c(=O)nc1N (stereo partly specified)	inactive	inactive			inactive		inactive			
CC(C)c1cn([C@@H]2O[C@@H]3COP(=O)(O)O[C@H]3[C@H]2O)c(=O)nc1N.N	inactive	inactive	> 200	> 200	inactive	0.8	inactive			
CCCc1cn(C2O[C@H](COP(=O)(O)O)[C@@H](O)[C@H]2O)c(=O)nc1N (stereo partly specified)	inactive	inactive			inactive		inactive			
CCc1cn(C2O[C@H](COP(=O)(O)O)[C@@H](O)[C@H]2O)c(=O)nc1N (stereo partly specified)	inactive	inactive			inactive		inactive			
CC(C)c1cn([C@@H]2O[C@H](CO)[C@@H](O)[C@H]2O)c(=O)nc1N								35 (≈ 123 µM)	inactive	39 (≈ 137 µM)
Nc1ccn([C@@H]2O[C@H](COP(=O)(O)O)[C@@H](O)[C@H]2O)c(=O)n1								43 (≈ 133 µM)	inactive	
CCCCCCc1cn([C@@H]2O[C@@H]3COP(=O)(O)O[C@H]3[C@H]2O)c(=O)nc1N.N	inactive	inactive	> 200	> 200	inactive	0.8	inactive			

Reference: ChEMBL document CHEMBL1124664, “Synthesis and cytostatic and antiviral activities of 1-beta-D-ribofuranosyl-5-alkylcytosine (5-alkylcytidine) cyclic 3',5'-monophosphates” (1989)
